# Assay results reported in patent US12642791B2, “Inhibitors of lysyl oxidases” (UNIVERSITY OF SOUTH CAROLINA, priority 2021, dated 2026).
# Columns and labels:
# Caki-1 cells = experiment: ECM crosslinking in kidney cancer cells; assay type: cell-based, human; conditions: 6232 at 10 uM, BAPN at 10 mM
# Procedure: Immunofluorescence staining of cells was done in μ-Slide 8-well glass bottom chambers (Ibidi, Germany). Cells were fixed with 4% paraformaldehyde for 20 min, permeabilized with 0.5% Triton X-100 for 10 min and blocked in 5% BSA-PBS. Samples were incubated with primary (Collagen I, Fibronectin, F-actin, a-SMA) and secondary Alexa Fluor 647 or 488-labeled antibodies for 1.5 hours at room temperature. Cells were also counterstained with DAPI for 5 min. Images were acquired using ZEN 2012 SP5 (Black) LSM 700 (Carl Zeiss, DE).
# LOXL2 = molecular target: T1, LOXL2 (Homo sapiens, UniProt Q9Y4K0); experiment: Lysyl oxidase activity assay with recombinant LOXL2 protein; assay type: biochemical; set-up: purchased Abcam, USA; conditions: for inhibition of recombinant LOXL2: 10 μM compound
# T1 sequence (Q9Y4K0 26-774): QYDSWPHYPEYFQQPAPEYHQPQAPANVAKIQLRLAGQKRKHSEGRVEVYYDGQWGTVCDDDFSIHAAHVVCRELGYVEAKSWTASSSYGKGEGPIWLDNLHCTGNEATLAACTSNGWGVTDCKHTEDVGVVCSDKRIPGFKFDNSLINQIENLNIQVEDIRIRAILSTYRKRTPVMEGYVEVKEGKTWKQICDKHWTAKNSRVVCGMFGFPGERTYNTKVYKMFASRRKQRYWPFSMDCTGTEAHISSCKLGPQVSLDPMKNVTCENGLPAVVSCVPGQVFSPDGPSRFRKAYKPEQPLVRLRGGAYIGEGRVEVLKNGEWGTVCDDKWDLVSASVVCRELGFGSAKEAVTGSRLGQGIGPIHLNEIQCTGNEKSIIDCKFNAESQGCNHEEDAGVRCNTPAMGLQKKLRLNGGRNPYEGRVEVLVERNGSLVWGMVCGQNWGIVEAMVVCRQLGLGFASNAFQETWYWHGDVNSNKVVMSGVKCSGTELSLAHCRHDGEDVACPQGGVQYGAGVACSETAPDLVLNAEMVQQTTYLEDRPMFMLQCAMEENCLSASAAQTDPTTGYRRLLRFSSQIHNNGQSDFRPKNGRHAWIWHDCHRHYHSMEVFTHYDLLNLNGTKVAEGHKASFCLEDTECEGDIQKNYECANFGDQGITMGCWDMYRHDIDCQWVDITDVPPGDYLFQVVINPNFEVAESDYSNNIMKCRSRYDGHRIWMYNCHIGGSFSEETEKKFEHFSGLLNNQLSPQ
# Procedure: For in vitro lysyl oxidase activity (for recombinant proteins), Lysyl Oxidase Activity kit (Biovision, USA) was used according to manufacturer's instructions. Briefly, 1 μg of LOX (Novus, USA), 0.2 μg of LOXL1 (Abcam, USA) and 0.1 μg of LOXL2 (Abcam, USA) were incubated with the reagent mix in the presence of inhibitors or vehicle. Lysyl oxidase activity of the wells was measured in multimode reader (every 30 sec, total 2.5 hours) in […] mode.
# TM01278 PDX organoids = experiment: PDX-derived TNBC organoids, combination with doxorubicin; assay type: cell-based, human; conditions: combination with doxorubicin (50 nM) vs single agents, 9 days
# Procedure: FIG. 36. Combination of 6403 and 6415 with doxorubicin reduced the growth of the TNBC organoids. A. Representative images of TM01278 PDX organoids at day 0 and day 9 after treatment with doxorubicin (50 nM) and 6403 and 6415 treatments, alone or in combination. B. Quantification of organoid diameter and viability upon combination therapy for 9 days.
# TNBC organoids were established from a fresh surgical tissue by cutting the tumor into small pieces and incubating in collagenase A solution with ROCK inhibitor on a shaker at 37° C. for 30 minutes. The collagenase activity was inhibited by adding FBS, and pipetting was done to ensure the formation of almost a single cell solution. After several washes with PBS, the cell pellet was dissolved in matrigel. Breast organoid media containing ROCK and GSK inhibitors was added after the Matrigel solidified. See, Sachs, N. et al. A Living Biobank of Breast Cancer Organoids Captures Disease Heterogeneity. Cell 172, 373-386 e310, doi:10.1016/j.cell.2017.11.010 (2018). For drug testing studies, organoids were disrupted to single cells by digesting at 37° C. for 30 mins with TrypLE (A1217701, Gibco, NY, USA) in the presence of 10 μM Rock inhibitor (s1049, Selleckchem, TX, USA). Organoids were plated into wells of 96 well plate (20.000 cells/well) on a collagen-coated surface with media containing 2% Matrigel (356252, Corning, NY, USA). Drugs were added 72 hours after plating. Cells were grown in the presence of drug or vehicle for 9 days, and photos were taken from each well to show the organoid size. Organoid viability was measured by using 3D Cell Titer Glo (Promega, USA) kit.
# HFF = experiment: Viability assay in normal cells; assay type: cell-based; conditions: human foreskin fibroblast cell line
# Description: (§1) FIG. 32. 6232 derivatives, 6403 and 6415, show no cytotoxicity in normal cells. Viability assay in normal breast cell line, MCF12A, human foreskin fibroblast cell line, HFF and human endothelial cell line, HUVEC treated with 6403 or 6415.
# HUVEC = experiment: Viability assay in normal cells; assay type: cell-based; conditions: human endothelial cell line
# Description: as §1
# PK analysis = assay type: in vivo, BALB/c mice; conditions: mice, orally 50 mg/kg, n=3
# Procedure: PK profiles of Lead LOX inhibitor, 6403 was tested in BALB/c mice. Three mice per group were dosed by oral gavage at 50 mg/kg. Serum samples were collected at time points; 0.25, 0.5, 2, 7 and 24 hours. 6403 was diluted with serum from healthy mice as standard and serum levels of LOX inhibitors were quantified by LC-MS/MS methods, compared to the standard readings and followed by calculation of PK parameters, including Cmax, AUC, T1/2 values, clearance (Cl) and oral bioavailability (F %). Cmax represents the maximum concentration of drug that observed in the serum. AUC is a measure of the total exposure of the drug in the serum. T1/2, half-life, is the time required to eliminate half of the drug. Cl is defined as the volume of blood from which all drug is removed per minute.
Structure (SMILES),ECM crosslinking (Caki-1 cells),inhibition of recombinant LOXL2 (LOXL2),organoid size (TM01278 PDX organoids),organoid viability (TM01278 PDX organoids),cell viability (cytotoxicity in normal cells) (HFF),cell viability (cytotoxicity in normal cells) (HUVEC),Area Under the Curve (AUC) (PK analysis),clearance (Cl) (PK analysis),half-life (T½) (PK analysis),maximum concentration (Cmax) (PK analysis),volume of distribution (Vd) (PK analysis),inhibition of recombinant LOXL2 activity (LOXL2; 5 and 10 uM)
"Cc1nc(N)sc1-c1csc(Nc2ccc([N+](=O)[O-])cc2)n1 [compound 6232, 4-methyl-5-[2-(4-nitroanilino)thiazol-4-yl]thiazol-2-amine]",decrease in ECM crosslinking,moderately inhibit,,,,,,,,,,
"CC(=O)Nc1ccc(Nc2nc(-c3sc(N)nc3C)cs2)cc1 [compound 6403, N-[4-[[4-(2-amino-4-methyl-thiazol-5-yl)thiazol-2-yl]amino]phenyl]acetamide]",,,significantly decreased organoid size,significantly decreased,no significant change in cell viability,no significant change in cell viability,high,low,long,high,high,
"Cc1nc(N)sc1-c1csc(N(C)c2ccc(O)cc2)n1 [compound 6415, 4-[[4-(2-amino-4-methyl-thiazol-5-yl)thiazol-2-yl]-methyl-amino]phenol]",,inhibits both LOX and LOXL2 recombinant proteins,significantly decreased organoid size,significantly decreased,no significant change in cell viability,no significant change in cell viability,,,,,,inhibited the activity of LOX and LOXL2 recombinant proteins
